Experimental data from the supplement of paper PMC11061612.

Experiments:
Assay in all cases: combination Emax (second highest fraction inhibited in the dose matrix, 72 h); higher = more inhibition; extreme values may be limits of the assay
COLO-679 (Melanoma) = tested on: COLO-679 (Melanoma)
In short: (§1)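 Cell lines in DMEM/F12 or RPMI with 10% FBS were plated in 1536-well plates, held 24 hours at 37°C, 5% CO2, then given two-drug dose matrices for 72 hours (DMSO typically 0.2%). Viability was read by CellTiter-Glo 2.0 luminescence and scaled as inhibition from 0 (vehicle wells) to 1 (blank wells). Combination Emax is the second-highest inhibition in the matrix; Bliss excess is observed combination effect minus expected EA + EB − EA·EB, EA and EB being single-agent effects.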

[1] = tested on: Ca-Ski (Cervical Carcinoma)
In short: as §1

[2] = tested on: EFO-21 (Ovarian Carcinoma)
In short: as §1

[3] = tested on: EJM (Plasma Cell Myeloma)
In short: as §1

EW-1 (Ewing's Sarcoma) = tested on: EW-1 (Ewing's Sarcoma)
In short: as §1

[4] = tested on: G-401 (Other Solid Carcinomas)
In short: as §1

[5] = tested on: HAL-01 (B-Lymphoblastic Leukemia)
In short: as §1

[6] = tested on: HCC1500 (Breast Carcinoma)
In short: as §1

[7] = tested on: KGN (Other Solid Carcinomas)
In short: as §1

[8] = tested on: KMRC-1 (Kidney Carcinoma)
In short: as §1

[9] = tested on: KOPN-8 (B-Lymphoblastic Leukemia)
In short: as §1

[10] = tested on: ME-180 (Cervical Carcinoma)
In short: as §1

[11] = tested on: ML-2 (Acute Myeloid Leukemia)
In short: as §1

[12] = tested on: MOLT-4 (T-Lymphoblastic Leukemia)
In short: as §1

[13] = tested on: MV-4-11 (Acute Myeloid Leukemia)
In short: as §1

[14] = tested on: Mo-T (Other Blood Carcinomas)
In short: as §1

[15] = tested on: NCI-H1838 (Lung Adenocarcinoma)
In short: as §1

[16] = tested on: NCI-H650 (Lung Adenocarcinoma)
In short: as §1

[17] = tested on: SNU-387 (Hepatocellular Carcinoma)
In short: as §1

[18] = tested on: SW982 (Other Solid Carcinomas)
In short: as §1

COc1cccc(OCCCN)c1-c1cc(Nc2cnc(C#N)cn2)n[nH]1 [Prexasertib] + CCc1c2c(nc3ccc(O)cc13)-c1cc3c(c(=O)n1C2)COC(=O)[C@]3(O)CC [SN-38] (first compound max 1 µM, 7x7, partner max 0.3 µM)
combination Emax (COLO-679 (Melanoma)): 0.826 | combination Emax [1]: 0.983 | combination Emax [2]: 0.671 | combination Emax [3]: 0.952 | combination Emax (EW-1 (Ewing's Sarcoma)): 0.995 | combination Emax [4]: 0.929 | combination Emax [5]: 1 | combination Emax [6]: 0.934 | combination Emax [7]: 0.89 | combination Emax [8]: 0.455 | combination Emax [9]: 1 | combination Emax [10]: 0.948 | combination Emax [11]: 1 | combination Emax [12]: 1 | combination Emax [13]: 1 | combination Emax [14]: 0.698 | combination Emax [15]: 0.946 | combination Emax [16]: 0.815 | combination Emax [17]: 0.795 | combination Emax [18]: 0.796

Cn1cnc2c(F)c(Nc3ccc(Br)cc3Cl)c(C(=O)NOCCO)cc21 [Selumetinib] + C=CCn1c(=O)c2cnc(Nc3ccc(N4CCN(C)CC4)cc3)nc2n1-c1cccc(C(C)(C)O)n1 [AZD1775] (first compound max 10 µM, partner max 1 µM)
combination Emax (COLO-679 (Melanoma)): 0.823 | combination Emax [1]: 0.711 | combination Emax [2]: 0.315 | combination Emax [3]: 0.867 | combination Emax (EW-1 (Ewing's Sarcoma)): 0.883 | combination Emax [4]: 0.828 | combination Emax [5]: 0.876 | combination Emax [6]: 0.207 | combination Emax [7]: 0.695 | combination Emax [8]: 0.203 | combination Emax [9]: 0.995 | combination Emax [10]: 0.478 | combination Emax [11]: 0.994 | combination Emax [12]: 1 | combination Emax [13]: 0.915 | combination Emax [14]: 0.482 | combination Emax [15]: 0.468 | combination Emax [16]: 0.693 | combination Emax [17]: 0.544 | combination Emax [18]: 0.633

CCN(CCO)CCCOc1ccc2c(Nc3cc(CC(=O)Nc4cccc(F)c4)[nH]n3)ncnc2c1 [AZD2811] + C=CCn1c(=O)c2cnc(Nc3ccc(N4CCN(C)CC4)cc3)nc2n1-c1cccc(C(C)(C)O)n1 [AZD1775] (first compound max 1 µM, partner max 1 µM)
combination Emax (COLO-679 (Melanoma)): 0.491 | combination Emax [1]: 0.697 | combination Emax [2]: 0.472 | combination Emax [3]: 0.875 | combination Emax (EW-1 (Ewing's Sarcoma)): 0.827 | combination Emax [4]: 0.566 | combination Emax [5]: 0.891 | combination Emax [6]: 0.227 | combination Emax [7]: 0.767 | combination Emax [8]: 0.184 | combination Emax [9]: 0.882 | combination Emax [10]: 0.396 | combination Emax [11]: 1 | combination Emax [12]: 1 | combination Emax [13]: 0.936 | combination Emax [14]: 0.311 | combination Emax [15]: 0.483 | combination Emax [16]: 0.301 | combination Emax [17]: 0.575 | combination Emax [18]: 0.742

CS(=O)(=O)CCNCc1ccc(-c2ccc3ncnc(Nc4ccc(OCc5cccc(F)c5)c(Cl)c4)c3c2)o1 [Lapatinib] + C[C@@H](Oc1cc(-c2cnn(C3CCNCC3)c2)cnc1N)c1c(Cl)ccc(F)c1Cl [Crizotinib] (first compound max 10 µM, 7x7, partner max 10 µM)
combination Emax (COLO-679 (Melanoma)): 0.68 | combination Emax [1]: 0.969 | combination Emax [2]: 0.371 | combination Emax [3]: 0.937 | combination Emax (EW-1 (Ewing's Sarcoma)): 0.966 | combination Emax [4]: 0.942 | combination Emax [5]: 0.955 | combination Emax [6]: 0.854 | combination Emax [7]: 0.944 | combination Emax [8]: 0.952 | combination Emax [9]: 0.978 | combination Emax [10]: 0.81 | combination Emax [11]: 0.983 | combination Emax [12]: 0.966 | combination Emax [13]: 0.978 | combination Emax [14]: 0.88 | combination Emax [15]: 0.436 | combination Emax [16]: 0.615 | combination Emax [17]: 0.93 | combination Emax [18]: 0.968

CC(=O)c1c(C)c2cnc(Nc3ccc(N4CCNCC4)cn3)nc2n(C2CCCC2)c1=O [Palbociclib] + Cn1cnc2c(F)c(Nc3ccc(Br)cc3Cl)c(C(=O)NOCCO)cc21 [Selumetinib] (first compound max 10 µM, 7x7, partner max 10 µM)
combination Emax (COLO-679 (Melanoma)): 0.75 | combination Emax [1]: 0.301 | combination Emax [2]: 0.245 | combination Emax [3]: 0.182 | combination Emax (EW-1 (Ewing's Sarcoma)): 0.551 | combination Emax [4]: 0.859 | combination Emax [5]: 0.928 | combination Emax [6]: 0.193 | combination Emax [7]: 0.529 | combination Emax [8]: 0.218 | combination Emax [9]: 0.801 | combination Emax [10]: 0.297 | combination Emax [11]: 0.869 | combination Emax [12]: 0.766 | combination Emax [13]: 0.955 | combination Emax [14]: 0.329 | combination Emax [15]: 0.321 | combination Emax [16]: 0.36 | combination Emax [17]: 0.221 | combination Emax [18]: 0.579

COc1cccc(OCCCN)c1-c1cc(Nc2cnc(C#N)cn2)n[nH]1 [Prexasertib] + O=C(c1cc(Cc2n[nH]c(=O)c3ccccc23)ccc1F)N1CCN(C(=O)C2CC2)CC1 [Olaparib] (first compound max 1 µM, 7x7, partner max 10 µM)
combination Emax (COLO-679 (Melanoma)): 0.851 | combination Emax [1]: 0.787 | combination Emax [2]: 0.61 | combination Emax [3]: 0.969 | combination Emax (EW-1 (Ewing's Sarcoma)): 0.96 | combination Emax [4]: 0.533 | combination Emax [5]: 1 | combination Emax [6]: 0.286 | combination Emax [7]: 0.829 | combination Emax [8]: 0.558 | combination Emax [9]: 0.961 | combination Emax [10]: 0.429 | combination Emax [11]: 1 | combination Emax [12]: 1 | combination Emax [13]: 0.998 | combination Emax [14]: 0.52 | combination Emax [15]: 0.46 | combination Emax [16]: 0.708 | combination Emax [17]: 0.542 | combination Emax [18]: 0.767
